Converted amounts (≈) assume the structure as drawn.
Columns and labels:
[1] = Passive permeability in MDCK2 cell with low efflux; type: ADME, cell-based, Canis lupus familiaris, MDCK-II; settings: dog, MDCK
[2] = Lipophilicity, log D of the compound; type: physicochemical; settings: octanol/water
[3] = target: T1, Mitogen-activated protein kinase kinase kinase kinase 4 (Homo sapiens, UniProt O95819); experiment: Inhibition of recombinant human MAP4K4 catalytic domain in presence of 10 uM ATP (Km) by FRET assay
T1 sequence (O95819 whole entry, the tested form may be a part): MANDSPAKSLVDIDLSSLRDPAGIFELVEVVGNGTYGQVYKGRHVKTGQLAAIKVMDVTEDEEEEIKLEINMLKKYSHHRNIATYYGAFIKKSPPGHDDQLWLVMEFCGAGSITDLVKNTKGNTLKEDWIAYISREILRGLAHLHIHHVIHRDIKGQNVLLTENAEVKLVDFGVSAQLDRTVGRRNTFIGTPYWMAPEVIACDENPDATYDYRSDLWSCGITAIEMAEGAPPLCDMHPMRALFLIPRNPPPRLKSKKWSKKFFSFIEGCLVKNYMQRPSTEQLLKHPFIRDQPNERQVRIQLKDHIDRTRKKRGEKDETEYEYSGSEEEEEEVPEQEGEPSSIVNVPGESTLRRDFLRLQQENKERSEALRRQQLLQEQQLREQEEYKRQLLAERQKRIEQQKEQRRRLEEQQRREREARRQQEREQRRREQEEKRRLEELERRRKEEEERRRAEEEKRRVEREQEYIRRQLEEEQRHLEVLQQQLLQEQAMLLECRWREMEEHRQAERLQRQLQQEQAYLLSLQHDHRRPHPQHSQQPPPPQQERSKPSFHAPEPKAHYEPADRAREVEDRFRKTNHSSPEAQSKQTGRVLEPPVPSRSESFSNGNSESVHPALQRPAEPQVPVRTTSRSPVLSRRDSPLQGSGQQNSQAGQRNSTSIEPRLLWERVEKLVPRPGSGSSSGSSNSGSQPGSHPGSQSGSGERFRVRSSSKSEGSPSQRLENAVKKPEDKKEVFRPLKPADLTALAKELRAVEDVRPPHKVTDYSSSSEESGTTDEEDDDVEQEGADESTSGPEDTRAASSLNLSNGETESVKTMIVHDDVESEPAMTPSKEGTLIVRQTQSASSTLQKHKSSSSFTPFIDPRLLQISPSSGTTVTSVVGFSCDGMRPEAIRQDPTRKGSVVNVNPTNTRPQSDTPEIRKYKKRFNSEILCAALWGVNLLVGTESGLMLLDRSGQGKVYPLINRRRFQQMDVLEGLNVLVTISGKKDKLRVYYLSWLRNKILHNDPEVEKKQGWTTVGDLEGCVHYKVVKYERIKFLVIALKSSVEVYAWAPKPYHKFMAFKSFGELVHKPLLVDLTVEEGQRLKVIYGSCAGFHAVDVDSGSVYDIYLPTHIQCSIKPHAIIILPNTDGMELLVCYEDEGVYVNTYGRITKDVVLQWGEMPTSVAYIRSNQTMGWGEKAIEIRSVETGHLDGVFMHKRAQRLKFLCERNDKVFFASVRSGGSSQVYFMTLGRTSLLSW

[4] = target: T1, Mitogen-activated protein kinase kinase kinase kinase 4; experiment: Inhibition of human MAP4K4 transfected in 293 MSR cells assessed as inhibition of phosphorylation of traf2 at ser/thr residue by ELISA; type: cell-based
[5] = target: T1, Mitogen-activated protein kinase kinase kinase kinase 4; experiment: Inhibition of recombinant human MAP4K4 catalytic domain in presence of 1 mM ATP by FRET assay
[6] = Solubility of compound at pH 1.2; type: physicochemical; settings: buffer
[7] = Solubility of compound at pH 6.5; type: physicochemical; settings: buffer
[8] = system: Liver microsome; experiment: Unbound intrinsic clearance in human liver microsomes; type: ADME
[9] = target: T2, CYP3A4 (Homo sapiens, UniProt P08684); experiment: Inhibition of CYP3A4 (unknown origin) at 3 uM; type: ADME
T2 sequence (P08684 whole entry): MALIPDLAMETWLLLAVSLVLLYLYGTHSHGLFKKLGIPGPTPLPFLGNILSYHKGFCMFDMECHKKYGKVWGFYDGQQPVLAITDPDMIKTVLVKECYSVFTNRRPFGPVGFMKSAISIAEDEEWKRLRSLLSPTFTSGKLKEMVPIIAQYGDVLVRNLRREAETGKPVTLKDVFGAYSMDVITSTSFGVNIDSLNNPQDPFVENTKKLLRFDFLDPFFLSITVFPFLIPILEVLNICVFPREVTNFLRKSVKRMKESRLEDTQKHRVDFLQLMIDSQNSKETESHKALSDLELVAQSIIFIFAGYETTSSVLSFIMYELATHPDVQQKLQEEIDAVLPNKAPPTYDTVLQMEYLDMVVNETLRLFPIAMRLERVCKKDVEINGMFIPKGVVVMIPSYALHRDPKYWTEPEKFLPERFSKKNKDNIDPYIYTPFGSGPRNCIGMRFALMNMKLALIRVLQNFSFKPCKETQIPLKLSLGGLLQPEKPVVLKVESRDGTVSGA

[10] = target: CYP2D6 (Homo sapiens, UniProt P10635); experiment: Inhibition of CYP2D6 (unknown origin) at 3 uM; type: ADME
Sequence of CYP2D6 (P10635 whole entry): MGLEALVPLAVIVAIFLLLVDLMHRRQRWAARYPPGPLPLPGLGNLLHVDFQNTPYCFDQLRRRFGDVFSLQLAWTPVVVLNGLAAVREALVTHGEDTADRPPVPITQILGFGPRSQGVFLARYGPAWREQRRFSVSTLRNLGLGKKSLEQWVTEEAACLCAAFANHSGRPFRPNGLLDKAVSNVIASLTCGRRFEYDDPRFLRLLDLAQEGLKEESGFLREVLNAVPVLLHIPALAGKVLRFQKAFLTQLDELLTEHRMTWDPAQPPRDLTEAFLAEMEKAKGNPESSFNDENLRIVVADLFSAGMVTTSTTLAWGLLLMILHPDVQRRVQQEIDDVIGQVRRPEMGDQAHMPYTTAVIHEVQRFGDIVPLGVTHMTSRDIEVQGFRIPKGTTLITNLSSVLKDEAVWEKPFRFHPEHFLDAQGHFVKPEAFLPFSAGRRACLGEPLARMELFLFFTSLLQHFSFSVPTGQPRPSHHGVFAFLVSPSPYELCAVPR

[11] = target: T3, CYP2C8 (Homo sapiens, UniProt P10632); experiment: Inhibition of CYP2C8 (unknown origin) at 3 uM; type: ADME
T3 sequence (P10632 whole entry): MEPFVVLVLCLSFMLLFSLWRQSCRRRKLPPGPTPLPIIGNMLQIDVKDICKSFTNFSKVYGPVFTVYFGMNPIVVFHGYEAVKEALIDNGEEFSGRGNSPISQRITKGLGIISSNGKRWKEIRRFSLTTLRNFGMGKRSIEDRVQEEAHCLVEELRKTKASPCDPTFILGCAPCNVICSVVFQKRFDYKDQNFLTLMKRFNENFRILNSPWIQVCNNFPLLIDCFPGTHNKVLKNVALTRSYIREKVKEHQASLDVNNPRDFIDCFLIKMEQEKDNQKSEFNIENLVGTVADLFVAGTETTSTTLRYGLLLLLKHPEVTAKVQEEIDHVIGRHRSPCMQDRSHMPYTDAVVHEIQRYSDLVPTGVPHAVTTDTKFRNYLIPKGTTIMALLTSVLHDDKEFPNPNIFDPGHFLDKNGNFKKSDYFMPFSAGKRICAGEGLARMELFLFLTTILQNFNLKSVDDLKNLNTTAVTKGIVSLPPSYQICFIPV

[12] = target: CYP2C9 (Homo sapiens, UniProt P11712); experiment: Inhibition of CYP2C9 (unknown origin) at 3 uM; type: ADME
Sequence of CYP2C9 (P11712 whole entry): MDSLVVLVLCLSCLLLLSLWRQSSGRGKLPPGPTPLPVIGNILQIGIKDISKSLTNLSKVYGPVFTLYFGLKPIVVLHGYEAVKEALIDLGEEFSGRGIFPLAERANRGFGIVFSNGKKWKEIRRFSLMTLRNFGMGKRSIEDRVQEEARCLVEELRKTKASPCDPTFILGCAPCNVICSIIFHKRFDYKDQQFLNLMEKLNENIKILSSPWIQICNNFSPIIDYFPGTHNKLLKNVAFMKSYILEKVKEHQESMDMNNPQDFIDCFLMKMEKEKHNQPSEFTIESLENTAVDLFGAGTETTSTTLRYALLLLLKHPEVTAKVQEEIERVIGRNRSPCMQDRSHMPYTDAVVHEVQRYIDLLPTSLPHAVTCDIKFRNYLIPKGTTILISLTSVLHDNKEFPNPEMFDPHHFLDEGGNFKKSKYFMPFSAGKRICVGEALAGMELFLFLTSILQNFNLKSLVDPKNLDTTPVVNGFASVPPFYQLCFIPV

[13] = target: T4, CYP1A2 (Homo sapiens, UniProt P05177); experiment: Inhibition of CYP1A2 (unknown origin) at 3 uM; type: ADME
T4 sequence (P05177 whole entry): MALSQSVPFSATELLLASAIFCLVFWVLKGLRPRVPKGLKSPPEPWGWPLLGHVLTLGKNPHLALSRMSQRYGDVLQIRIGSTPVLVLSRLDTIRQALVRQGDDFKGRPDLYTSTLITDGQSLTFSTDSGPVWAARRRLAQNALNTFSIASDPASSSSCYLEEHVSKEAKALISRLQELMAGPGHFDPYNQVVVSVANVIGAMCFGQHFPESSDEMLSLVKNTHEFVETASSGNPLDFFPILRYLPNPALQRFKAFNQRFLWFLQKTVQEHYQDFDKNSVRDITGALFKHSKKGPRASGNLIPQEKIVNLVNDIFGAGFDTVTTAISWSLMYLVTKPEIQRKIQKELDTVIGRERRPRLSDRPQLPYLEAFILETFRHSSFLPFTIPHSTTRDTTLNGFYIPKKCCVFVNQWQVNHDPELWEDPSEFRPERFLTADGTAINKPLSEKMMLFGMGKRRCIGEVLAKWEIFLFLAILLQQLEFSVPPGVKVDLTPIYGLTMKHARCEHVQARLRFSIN

[14] = target: Voltage-gated inwardly rectifying potassium channel KCNH2 (Homo sapiens, UniProt Q12809); experiment: Inhibition of human ERG transfected in HEK293 cells; type: cell-based
Sequence of Voltage-gated inwardly rectifying potassium channel KCNH2 (Q12809 whole entry): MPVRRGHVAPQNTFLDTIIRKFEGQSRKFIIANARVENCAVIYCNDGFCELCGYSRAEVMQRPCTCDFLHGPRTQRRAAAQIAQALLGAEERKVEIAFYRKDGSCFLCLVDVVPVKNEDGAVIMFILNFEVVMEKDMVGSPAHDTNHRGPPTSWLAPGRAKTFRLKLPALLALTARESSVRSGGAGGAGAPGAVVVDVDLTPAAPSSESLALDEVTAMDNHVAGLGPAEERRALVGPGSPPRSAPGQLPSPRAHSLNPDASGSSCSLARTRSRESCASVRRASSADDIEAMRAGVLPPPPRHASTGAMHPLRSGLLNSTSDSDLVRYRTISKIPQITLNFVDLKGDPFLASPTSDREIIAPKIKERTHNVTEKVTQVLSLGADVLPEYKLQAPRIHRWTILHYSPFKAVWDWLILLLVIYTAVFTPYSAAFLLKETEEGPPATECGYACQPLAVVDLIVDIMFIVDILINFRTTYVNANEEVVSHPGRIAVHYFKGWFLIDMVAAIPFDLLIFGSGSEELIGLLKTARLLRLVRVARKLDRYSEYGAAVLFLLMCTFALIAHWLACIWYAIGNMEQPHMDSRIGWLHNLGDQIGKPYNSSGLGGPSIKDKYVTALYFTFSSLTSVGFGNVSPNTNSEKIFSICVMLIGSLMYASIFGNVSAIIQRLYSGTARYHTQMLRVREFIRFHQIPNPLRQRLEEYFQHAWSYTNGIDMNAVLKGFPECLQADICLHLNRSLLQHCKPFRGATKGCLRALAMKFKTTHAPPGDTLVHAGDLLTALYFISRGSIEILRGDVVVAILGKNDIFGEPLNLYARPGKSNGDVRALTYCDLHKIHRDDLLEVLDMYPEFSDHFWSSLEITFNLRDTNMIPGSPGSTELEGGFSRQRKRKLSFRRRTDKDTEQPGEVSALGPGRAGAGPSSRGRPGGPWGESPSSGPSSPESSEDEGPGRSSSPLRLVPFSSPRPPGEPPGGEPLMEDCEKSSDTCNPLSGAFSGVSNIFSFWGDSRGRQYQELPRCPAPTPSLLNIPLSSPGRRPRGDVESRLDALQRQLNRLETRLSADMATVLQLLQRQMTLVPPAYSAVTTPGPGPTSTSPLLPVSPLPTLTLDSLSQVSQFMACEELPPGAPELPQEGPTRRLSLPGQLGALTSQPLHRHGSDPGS

[15] = system: Epithelial cell; experiment: Cytotoxicity against human liver epithelial cells
[16] = system: Salmonella typhimurium; experiment: Mutagenicity in Salmonella typhimurium by Ames test; type: toxicity, organism-based; settings: salmonella enterica subsp. enterica serovar typhimurium
[17] = target: T2, CYP3A4; experiment: Time dependent inhibition of CYP3A4 (unknown origin) using midazolam as substrate at 30 uM; type: ADME; settings: probe midazolam
[18] = target: T2, CYP3A4; experiment: Time dependent inhibition of CYP3A4 (unknown origin) using midazolam as substrate at 60 uM; type: ADME; settings: probe midazolam
[19] = target: TRAF2 and NCK-interacting protein kinase (Homo sapiens, UniProt Q9UKE5); experiment: Inhibition of TNIK (unknown origin) in presence of ATP (Km)
[20] = target: Misshapen-like kinase 1 (Homo sapiens, UniProt Q8N4C8); experiment: Inhibition of MINK (unknown origin) in presence of ATP (Km)
[21] = target: T5, Cytochrome P450 1A2 (Homo sapiens, UniProt P05177); experiment: Inhibition of CYP1A2 (unknown origin); type: ADME
T5 sequence (P05177 whole entry): T4 sequence (P05177 whole entry)

[22] = Fraction unbound in mouse plasma at 10 mg/kg, po; type: ADME, organism-based
[23] = system: Mus musculus; experiment: Inhibition of LPS-induced TNF-alpha level in C57/Bl6 mouse blood at 15 mg/kg, po administered 30 mins prior to LPS challenge measured after […]; type: functional; settings: C57/BI6, Blood
[24] = system: Plasma; experiment: Plasma concentration in C57/Bl6 mouse at 15 mg/kg, po; type: ADME, organism-based, C57/BI6; settings: in vivo
[25] = system: Mus musculus; experiment: Decrease in blood glucose level in ob/ob mouse at 10 mg/kg, po bid for 4 weeks; type: functional; settings: 672 h

## NC(=O)c1ccc(-c2cncc(-c3ccc(OC4CC4)cc3)c2)cc1
[1]
  Papp: 3.5 ×10⁻⁶ cm/s

## NC(=O)c1ccc(-c2ncc(-c3ccc(Cl)cc3)o2)cc1
[2]
  logD: 3.6
[3]
  IC50: 94 nM
[4]
  IC50: 6300 nM
[5]
  IC50: > 10000 nM

## NC(=O)c1ccc(-c2cc(-c3ccc(Cl)cc3)ccn2)cc1
[1]
  Papp: 4.4 ×10⁻⁶ cm/s

## COc1ccc(-c2cncc(-c3ccc(C(N)=O)cc3)c2)cc1
[1]
  Papp: 8.7 ×10⁻⁶ cm/s

## Cn1c(-c2ccc(Cl)cc2)cnc1-c1ccc(C(N)=O)cc1
[1]
  Papp: 15.6 ×10⁻⁶ cm/s

## NC(=O)c1ccc(-c2cn(-c3ccc(Cl)cc3)cn2)cc1
[1]
  Papp: 2.9 ×10⁻⁶ cm/s

## Nc1ncc(-c2cnc(N)c(-c3ccc(Cl)cc3)c2)cn1
[6]; read-out: solubility
  solubility: 3960 µg/mL (≈ 13.3 mM)
[7]
  solubility: 2 µg/mL (≈ 0.00672 mM)
[8]
  CL free: 13 mL/min/kg
[9]
  inhibition at 3 µM: < 15%
[10]
  inhibition at 3 µM: < 15%
[11]
  inhibition at 3 µM: < 15%
[12]
  inhibition at 3 µM: < 15%
[13]
  inhibition at 3 µM: < 15%
[14]
  IC50: > 10000 nM
[15]
  IC50: > 300000 nM
[16]
  Activity: Non-toxic
[17]
  inhibition at 30 µM: 8%
[18]
  inhibition at 60 µM: 24%

## CS(=O)(=O)c1ccc(-c2cc(-c3ccc(O)cc3)cnc2N)cc1
[1]
  Papp: 17.2 ×10⁻⁶ cm/s

## CS(=O)(=O)c1ccc(-c2cc(-c3ccc(C(N)=O)cc3)cnc2N)cc1
[1]
  Papp: 6.7 ×10⁻⁶ cm/s

## Nc1ccc(-c2cnc(N)c(-c3ccc(Cl)cc3)c2)cn1
[3]
  IC50: 3.7 nM
[4]
  IC50: 160 nM
[1]
  Papp: 7.1 ×10⁻⁶ cm/s
[6]
  solubility: 13000 µg/mL (≈ 43.8 mM)
[7]
  solubility: 5800 µg/mL (≈ 19.5 mM)
[19]
  IC50: 15 nM
[20]
  IC50: 8 nM
[8]
  CL free: 89 mL/min/kg
[9]
  inhibition at 3 µM: < 15%
[10]
  inhibition at 3 µM: < 15%
[11]
  inhibition at 3 µM: < 15%
[12]
  inhibition at 3 µM: < 15%
[21]
  IC50: 3000 nM
[14]
  IC50: 1800 nM
[15]
  IC50: > 119000 nM
[16]
  Activity: Toxic
[22]
  fraction unbound: 0.038
[23]
  inhibition in vivo at 15 mg/kg: > 90%
[24]
  Cp: 439 ng/mL
[25]
  inhibition in vivo at 10 mg/kg: 44%
[17]
  inhibition at 30 µM: 54%
[18]
  inhibition at 60 µM: 61%

## NC(=O)c1ccc(-c2cncc(-c3ccc(Cl)cc3)c2)cc1
[1]
  Papp: 8.7 ×10⁻⁶ cm/s

## NC(=O)c1ccc(-n2cc(-c3ccc(Cl)cc3)cn2)cc1
[3]
  IC50: 248 nM
[4]
  IC50: > 30000 nM
[5]
  IC50: > 10000 nM

## Nc1ncc(-c2cc[nH]c(=O)c2)cc1-c1ccc(Cl)cc1
[1]
  Papp: 15.7 ×10⁻⁶ cm/s

Source: ChEMBL document CHEMBL3751803, “Discovery of an in Vivo Tool to Establish Proof-of-Concept for MAP4K4-Based Antidiabetic Treatment” (ACS Med Chem Lett, 2015)
